# Data taken from patent US20040014676A1, “SRC kinase inhibitors useful for treating osteoporosis” (priority 2001, published 2004).
# Target: T1, Src kinase (Homo sapiens, UniProt P12931)
# T1 construct: purchased Upstate Bioteolnology (sic; Upstate Biotechnology); later HMR stock 27597-019E1 #14-117
# Assay: Phosphorylation assay of Src kinase inhibitors (radiometric, 96 well filter plate)
# Format: biochemical
# Conditions: duplicates, tested in the range of 400-0.098 µM; 10 µM peptide substrate (FIYGAFKKKKNH2), 5 µM unlabeled ATP, room temperature 30 min; read-out: IC50
# Procedure: The present invention provides novel compounds of Formulae I through XVIII discussed above. The following compounds which fall within Formulae I through XVIII are characterized by structure, IUPAC name and activity using phosphorylation assay for protein tyrosine Src kinase.
# Phosphorylation Assay of Src Kinase Inhibitors
# The activity of Src kinase was measured in a 96 well plate phosphorylation assay where the transfer of gamma phosphate from ATP to peptide substrate was measured radiometrically. […] Ki values were determined experimentally for some of the inhibitors. The phosphocellulose filter plates (Millipore catalog #MAPH NOB) were prewet prior to the phosphorylation assay by addition of 100 1 per well of 30 mM MES buffer+0.4 mg/ml BSA. After a 20-minute incubation, the buffer was removed completely via a Millipore vacuum manifold. The phosphorylation assay was then set up in the filter plates in a total volume per well of 60 1. The 60 1 consisted of compound (see concentration ranges above), a 1:100 dilution of Src kinase (originally Upstate Bioteolnology, #14-117; later HMR stock 27597-019E1) or assay buffer alone (for no enzyme control wells), 10 M peptide substrate (FIYGAFKKKKNH2), 5 M unlabeled ATP and a 1:500 dilution of P-ATP (New England Nuclear, catalog #NEG-602H, 2000 Ci/mmol). The reaction was mixed and incubated at room temperature for 30 min. The kinase reactions were stopped by addition of 150 mM H3PO4 and incubated for 10 minutes. The filter plate wells were filtered and washed seven times with 200 1 per well of 150 mM H3PO4. Finally, the filter plate was placed into a Packard plate adapter (Packard catalog #600517B), 35 1 of Microscint-20 (Packard catalog #6013621) was added to each well, the plate was sealed (TopSeal A sealers; Packard catalog #6005185) and counted on a Packard TopCount.
# T1 sequence (P12931 whole entry): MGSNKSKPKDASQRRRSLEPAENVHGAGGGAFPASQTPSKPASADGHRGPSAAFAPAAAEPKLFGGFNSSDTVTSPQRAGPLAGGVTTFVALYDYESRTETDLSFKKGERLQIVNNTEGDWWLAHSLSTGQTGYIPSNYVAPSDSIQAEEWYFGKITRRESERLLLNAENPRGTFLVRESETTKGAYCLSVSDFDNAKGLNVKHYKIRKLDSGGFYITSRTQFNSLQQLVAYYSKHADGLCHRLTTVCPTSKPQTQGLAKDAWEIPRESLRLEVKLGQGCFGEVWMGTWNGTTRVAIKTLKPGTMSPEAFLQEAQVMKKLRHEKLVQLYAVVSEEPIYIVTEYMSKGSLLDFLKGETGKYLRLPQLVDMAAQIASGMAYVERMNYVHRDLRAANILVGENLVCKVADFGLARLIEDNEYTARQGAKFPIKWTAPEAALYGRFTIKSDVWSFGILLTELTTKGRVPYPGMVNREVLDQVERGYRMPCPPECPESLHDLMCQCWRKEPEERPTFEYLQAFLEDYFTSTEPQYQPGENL
row,SMILES,IC50 [nM]
1,"NC(=O)CNC(=O)c1cc2ccccc2cc1OCCCCNC(=O)[C@H](Cc1ccc(O)cc1)NC(=O)OCc1ccccc1 [Example 18, 3-[4-[[2(S)-(N-BENZYLOXY- CARBONYL)AMINO-3-(4-HYDROXY- PHENYL)-1-OXOPROPYL]AMINO]- BUTOXY]-NAPHTHALENE-2-[N-(2- AMIDOMETHYL)]CARBOXAMIDE]",32000
2,CCC(C)[C@H](N)C(=O)NC(Cc1ccc(O)cc1)C(=O)NCCCCOc1cc2ccccc2cc1C(=O)NCC(N)=O (stereo partly drawn) [Example 19],12000
3,"NC(=O)CNC(=O)c1cc2ccccc2cc1OCCCCNC(=O)C1Cc2ccc(O)cc2CN1 (stereo not drawn) [Example 20, 3-[N-[[(7-HYDROXY)-1,2,3,4-TETRA- HYDROISOQUINOLIN-3-YL]- CARBONYL]AMINO]BUTOXY]- NAPHTHALENE-2-[N-(2- AMIDOMETHYL)]CARBOXAMIDE]",3800
4,"NC(=O)CNC(=O)c1cc2ccccc2cc1OCCCCNC(=O)C1NCCC1c1ccc(O)cc1 [Example 21, 3-[N-[[[(3-(R)4-HYDROXYPHENYL)- TETRAHYDROPYRROL-2-YL]- CARBONYL]AMINO]BUTOXY]- NAPHTHALENE-2-[N-(2- AMIDOMETHYL)]CARBOXAMIDE]",4600
5,"NC(=O)CNC(=O)c1cc2ccccc2cc1OCCCCNC(=O)C1NCCC1c1ccc(O)cc1 [Example 22, 3-[N-[[[(3-(S)4-HYDROXYPHENYL)- TETRAHYDROPYRROL-2-YL]- CARBONYL]AMINO]BUTOXY]- NAPHTHALENE-2-[N-(2- AMIDOMETHYL)]CARBOXAMIDE]",11000
6,"NCCCCOc1cc2ccccc2cc1C(=O)NCC(N)=O [Example 26, 3-(4-AMINOBUTOXY)-NAPHTHALENE- 2-[N-ACETAMIDO]CARBOXAMIDE]",25000
7,"NC(=O)CNC(=O)c1cc2ccccc2cc1NC(=O)CCCNC(=O)[C@@H](N)Cc1ccc(O)cc1 [Example 34, 3-[[[[[[2(S)-AMINO-3-(4-HYDROXY- PHENYL)-1-OXO]PROPYL]AMINO]- PROPYL]CARBONYL] AMINO]- NAPHTHALENE-2-(N-ACETAMIDO)- CARBOXAMIDE]",252000
8,"NC(=O)CNC(=O)c1cc2ccccc2cc1NC(=O)CCCCNC(=O)[C@@H](N)Cc1ccc(O)cc1 [Example 35, 3-[[[[[[2(S)-AMINO-3-(4-HYDROXY- PHENYL)-1-OXO]PROPYL]AMINO]- BUTYL]CARBONYL] AMINO]- NAPHTHALENE-2-(N- ACETAMIDO)CARBOXAMIDE]",209000
9,"NC(=O)CNC(=O)c1cc2ccccc2cc1OCCCCNC(=O)[C@@H](N)CCc1ccccc1 [Example 36, 3-[[4-[(2(S)-AMINO-3-(BENZYL-1- OXO)PROPYL]AMINO]BUTOXY]- NAPHTHALENE-2-(N- ACETAMIDO)CARBOXAMIDE]",7900
10,"NC(=O)CNC(=O)c1cc2ccccc2cc1OCCCCNC(=O)[C@@H](N)c1ccccc1 [Example 37, 3-[[4-[(2(S)-AMINO-2-PHENYL-1- OXO)ETHYL]AMINO]BUTOXY]- NAPHTHALENE-2-(N- ACETAMIDO)CARBOXAMIDE]",3300
11,"NC(=O)CNC(=O)c1cc2ccccc2cc1OCCCCNC(=O)[C@@H](N)Cc1ccc(-c2ccccc2)cc1 [Example 38, 3-[[4-[[2(S)-AMINO-3-(BIPHEN-1-YL)-1- OXO]PROPYL]AMINO]BUTOXY]- NAPHTHALENE-2-(N- ACETAMIDO)CARBOXAMIDE]",30000
12,"NC(=O)CNC(=O)c1cc2ccccc2cc1OCCCCNC(=O)[C@@H](N)C(c1ccccc1)c1ccccc1 [Example 39, 3-[[4-[(2(S)-AMINO-3,3-BISPHENYL-1- OXO)PROPYL]AMINO]BUTOXY]- NAPHTHALENE-2-(N-ACETAMIDO)- CARBOXAMIDE]",1700
13,"NC(=O)CNC(=O)c1cc2ccccc2cc1OCCCCNC(=O)C1(N)Cc2ccccc2C1 [Example 40, 3-[4-[n-[1-OXO-2-(2-AMINOINDAN-2- YL)]ETHYL]-AMINOBUTOXY]- NAPHTHALENE-2-(N- ACETAMIDO)CARBOXAMIDE]",12000
14,"NC(=O)CNC(=O)c1cc2ccccc2cc1OCCCCNC(=O)[C@@H](N)Cc1ccc(F)cc1 [Example 41, 3-[[4-[[2(S)-AMINO-3-(4-FLUORO- PHENYL)-1-OXO]PROPYL]AMINO]- BUTOXY]-NAPHTHALENE-2- (N-ACETAMIDO)CARBOXAMIDE]",310
15,"NC(=O)CNC(=O)c1cc2ccccc2cc1OCCCCNC(=O)[C@@H](N)Cc1ccc(Cl)cc1 [Example 42, 3-[[4-[(2(S)-AMINO-3-(4-CHLORO- PHENYL)-1-OXO)PROPYL]AMINO]- BUTOXY]-NAPHTHALENE-2- (N-ACETAMIDO)CARBOXAMIDE]",880
16,"NC(=O)CNC(=O)c1cc2ccccc2cc1OCCCCNC(=O)[C@@H](N)Cc1c(F)c(F)c(F)c(F)c1F [Example 43, 3-[[4-[[2(S)-AMINO-3-(2,3,4,5,6- PENTAFLUORO)PHENYL-1-OXO]- PROPYL]AMINO]BUTOXY]- NAPHTHALENE-2- (N-ACETAMIDO)CARBOXAMIDE]",1380
17,"NC(=O)CNC(=O)c1cc2ccccc2cc1OCCCCNC(=O)[C@@H](N)Cc1csc2ccccc12 [Example 44, 3-[[4-[[2(S)-AMINO-3(BENZOTHIOPHEN- 3-YL)-1-OXO]PROPYL]AMINO]- BUTOXY]-NAPHTHALENE-2- (N-ACETAMIDO)CARBOXAMIDE]",230
18,"NC(=O)CNC(=O)c1cc2ccccc2cc1OCCCCNC(=O)[C@@H](N)Cc1ccc([N+](=O)[O-])cc1 [Example 45, 3-[[4-[[2(S)-AMINO-3(4-NITROPHENYL)- 1-OXO]PROPYL]AMINO]BUTOXY]- NAPHTHALENE-2-(N-ACETAMIDO)- CARBOXAMIDE]",1470
19,"NC(=O)CNC(=O)c1cc2ccccc2cc1OCCCCNC(=O)[C@@H](N)Cc1ccc(O)c(I)c1 [Example 46, 3-[[4-[[2(S)-AMINO-3(3-IODO-4- HYDROXYPHENYL)-1-OXO]PROPYL]- AMINO]BUTOXY]-NAPHTHALENE-2- (N-ACETAMIDO)CARBOXAMIDE]",310
20,"NC(=O)CNC(=O)c1cc2ccccc2cc1OCCCCNC(=O)[C@@H](N)Cc1ccccn1 [Example 47, 3-[[4-[[2(S)-AMINO-3(PYRIDIN-2-YL)-1- OXO]PROPYL]AMINO]BUTOXY]- NAPHTHALENE-2-(N-ACETAMIDO)- CARBOXAMIDE]",17000
21,"NC(=O)CNC(=O)c1cc2ccccc2cc1OCCCCNC(=O)[C@@H](N)Cc1cccnc1 [Example 48, 3-[[4-[[2(S)-AMINO-3-(PYRIDIN-3-YL)-1- OXO]PROPYL]AMINO]BUTOXY]- NAPHTHALENE-2-(N-ACETAMIDO)- CARBOXAMIDE]",9600
22,"NC(=O)CNC(=O)c1cc2ccccc2cc1OCCCCNC(=O)[C@@H](N)CC1CCCCC1 [Example 49, 3-[[4-[[2(S)-AMINO-3(CYCLOHEXYL)-1- OXO]PROPYL]AMINO]BUTOXY]- NAPHTHALENE-2-(N-ACETAMIDO)- CARBOXAMIDE]",920
23,"NC(=O)CNC(=O)c1cc2ccccc2cc1OCCCCNC(=O)[C@@H](N)C1CCCCC1 [Example 50, 3-[[[4-(2(S)-AMINO-2-CYCLOHEXYL-1- OXO)ETHYL]AMINO]BUTOXY]- NAPHTHALENE-2-(N-ACETAMIDO)- CARBOXAMIDE]",2000
24,"NC(=O)CNC(=O)c1cc2ccccc2cc1OCCCCNC(=O)[C@@H](N)Cc1csc2ccccc12 [Example 51, 3-[[4-[[2(S)-AMINO-3-(BENZO- THIOPHEN-3-YL)-1-OXO]PROPYL]- AMINO]BUTOXY]-NAPHTHALENE-2- (N-ACETAMIDO)CARBOXAMIDE]",100
25,"NC(=O)CNC(=O)c1cc2ccccc2cc1OCCCCNC(=O)C(N)C1Cc2ccccc2C1 (stereo not drawn) [Example 52, 3-[4-[N-[1-OXO-2-AMINO-2-(INDAN-2- YL)]ETHYL]-AMINOBUTOXY]- NAPHTHALENE-2-(N-ACETAMIDO)- CARBOXAMIDE]",1560
26,"NC(=O)CNC(=O)c1cc2ccccc2cc1OCCCCNC(=O)[C@H](N)Cc1ccccc1 [Example 53, 3-[4-[[[2(R)-AMINO-3-PHENYL-1- OXO]PROPYL]AMINO]BUTOXY]- NAPHTHALENE-2-(N-ACETAMIDO)- CARBOXAMIDE]",1400
27,"NC(=O)CNC(=O)c1cc2ccccc2cc1OCCCCNC(=O)[C@@H](N)Cc1ccc(O)c([N+](=O)[O-])c1 [Example 54, 3-[4-[[[2(S)-AMINO-3-(3-NITRO-4- HYDROXY)PHENYL-1-OXO]PROPYL]- AMINO]BUTOXY]-NAPHTHALENE-2- (N-ACETAMIDO)CARBOXAMIDE]",660
28,"NC(=O)CNC(=O)c1cc2ccccc2cc1OCCCCNC(=O)[C@@H](N)Cc1cccs1 [Example 55, 3-[4-[[[2(S)-AMINO-3-(THIOPHEN-2-YL)- 1-OXO]PROPYL]AMINO]BUTOXY]- NAPHTHALENE-2-(N-ACETAMIDO)- CARBOXAMIDE]",1350
29,"NC(=O)CNC(=O)c1cc2ccccc2cc1OCCCCNC(=O)[C@H](N)Cc1ccc(O)cc1 [Example 56, 3-[4-[[[2(R)-AMINO-3-(4-HYDROXY- PHENYL-1-OXO]PROPYL]AMINO]- BUTOXY]-NAPHTHALENE-2-(N- ACETAMIDO)CARBOXAMIDE]",50000
30,"NC(=O)CNC(=O)c1cc2ccccc2cc1OCCCCNC(=O)[C@@H](N)Cc1cccc2ccccc12 [Example 57, 3-[4-[[[2(S)-AMINO-3-(NAPHTH-1-YL)-1- OXO]PROPYL]AMINO]BUTOXY]- NAPHTHALENE-2-(N-ACETAMIDO)- CARBOXAMIDE]",370
